For data set [1], the system named is lambsquarter (Chenopodium album). Briefly: Postemergence herbicidal activity. The data set is classed as in vivo. As to conditions: Chenopodium album, post-emergence, 336 h, post-emergent, 140 g ai/ha, after 14 days; read-out: % Control CHEAL. An outline of the steps: (§1)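 Compounds were applied postemergence by track sprayer delivering 187 L/ha, using a mixed organic/aqueous carrier containing crop oil concentrate and surfactant; solvent-blank sprays served as controls. Test plants were at the first to second true leaf stage after 7-21 days' greenhouse growth, were sub-irrigated after treatment, and were evaluated by probit analysis.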

The subject of data set [2] is redroot pigweed (Amaranthus retroflexus). Briefly: Postemergence herbicidal activity. The data set is classed as in vivo. As to conditions: Amaranthus retroflexus, post-emergence, 336 h, post-emergent, 140 g ai/ha, after 14 days; read-out: % Control AMARE. The procedure, abridged:
as §1

Data set [3] concerns velvetleaf (Abutilon theophrasti). Briefly: Postemergence herbicidal activity. It counts as in vivo. To be noted: Abutilon theophrasti, post-emergence, 336 h, post-emergent, 140 g ai/ha, after 14 days; read-out: % Control ABUTH. An outline of the steps: as §1
Data set [4] deals with lambsquarter (Chenopodium album). Briefly: Preemergence herbicidal activity. It counts as in vivo. As to conditions: Chenopodium album, pre-emergence, 480 h; pre-emergent, 140 g ai/ha, after 20-22 days; read-out: % Control CHEAL. The source says: (§2) Seeds of the desired test plant species were planted in a soil matrix prepared by mixing a loam soil (43 percent silt, 19 percent clay, and 38 percent sand, with a pH of about 8.1 and an organic matter content of about 1.5 percent) and sand in a 70 to 30 ratio. The soil matrix was contained in plastic pots with a surface area of 113 square centimeters. When required to ensure good germination and healthy plants, a fungicide treatment and/or other chemical or physical treatment was applied. […] Compound requirements are based upon a 12 mL application volume at a rate of 187 L/ha. Formulated compounds were applied to the plant material with an overhead Mandel track sprayer equipped with a […] nozzles calibrated to deliver 187 L/ha over an application area of 0.503 square meters at a spray height of 18 inches (43 cm) above the soil surface. Control plants were sprayed in the same manner with the solvent blank. The treated pots and control pots were placed in a greenhouse maintained with an approximate 15 hour photoperiod and temperatures of about 23-29° C. during the day and 22-28° C. during the night. Nutrients and water were added on a regular basis and supplemental lighting was provided with overhead metal halide 1000-watt lamps as necessary. The water was added by top-irrigation.

The test system of data set [5] is redroot pigweed (Amaranthus retroflexus). As to the kind of experiment: Preemergence herbicidal activity. To be noted: Amaranthus retroflexus, pre-emergence, 480 h; pre-emergent, 140 g ai/ha, after 20-22 days; read-out: % Control AMARE. It counts as in vivo.
Source text: as §2

Data set [6] has as its system velvetleaf (Abutilon theophrasti). As to the kind of experiment: Preemergence herbicidal activity. It counts as in vivo. As to conditions: Abutilon theophrasti, pre-emergence, 480 h; pre-emergent, 140 g ai/ha, after 20-22 days; read-out: % Control ABUTH.
Source text: as §2

In general, melting point refers to the temperature of the solid-liquid transition. `CN(C)c1c(Cl)cc(F)c(-c2cc(N)c(Cl)c(C(=O)O)n2)c1F` [Compound 94, 4-Amino-3-chloro-6-(4-chloro-2,6-difluoro-3-dimethylaminophenyl)pyridine-2-carboxylic acid] gave a melting point of 171 to 172 °C. Moreover, the pest or weed control at 140 g/ha in data set [1] came out at 100%. Moreover, the pest or weed control at 140 g/ha in data set [2] was 100%. The pest or weed control at 140 g/ha in data set [3] stood at 100%. For the same compound, the pest or weed control at 140 g/ha in data set [4] was 100%. Moreover, in data set [5], the pest or weed control at 140 g/ha was 100%. Besides, the pest or weed control at 140 g/ha in data set [6] was 100%.
For the compound `Cc1c(Cl)ccc(-c2cc(N)c(Cl)c(C(=O)O)n2)c1F` [Compound 99, 4-Amino-3-chloro-6-(4-chloro-2-fluoro-3-methylphenyl)pyridine-2-carboxylic acid], the melting point is 179 to 181 °C (dec.). The pest or weed control at 140 g/ha in data set [1] stood at 90%. Moreover, the pest or weed control at 140 g/ha in data set [2] is 90%. Besides, the pest or weed control at 140 g/ha in data set [3] amounted to 80%. Also, in data set [4], the pest or weed control at 140 g/ha came out at 95%. In addition, in data set [5], the pest or weed control at 140 g/ha is 100%. The pest or weed control at 140 g/ha in data set [6] is 100%.
For the compound `CCOc1c(Cl)ccc(-c2cc(N)c(Cl)c(C(=O)O)n2)c1F` [Compound 102, 4-Amino-3-chloro-6-(4-chloro-2-fluoro-3-ethoxyphenyl)pyridine-2-carboxylic acid], the melting point was 177 to 178 °C (dec.). In addition, the pest or weed control at 140 g/ha in data set [1] was determined as 95%. In addition, the pest or weed control at 140 g/ha in data set [2] turned out to be 85%. Moreover, the pest or weed control at 140 g/ha in data set [3] turned out to be 80%. For the same compound, the pest or weed control at 140 g/ha in data set [4] is 0%. In addition, the pest or weed control at 140 g/ha in data set [5] was 95%. Further, the pest or weed control at 140 g/ha in data set [6] is 85%.
With `COCc1c(Cl)ccc(-c2cc(N)c(Cl)c(C(=O)O)n2)c1F` [Compound 105, 4-Amino-3-chloro-6-(4-chloro-2-fluoro-3-methoxymethylphenyl)pyridine-2-carboxylic acid], the melting point was 187 to 188 °C (dec.). Also, the pest or weed control at 140 g/ha in data set [1] is 85%. Further, in data set [2], the pest or weed control at 140 g/ha came to 98%. The pest or weed control at 140 g/ha in data set [3] came out at 95%. Besides, the pest or weed control at 140 g/ha in data set [4] was 95%. In addition, the pest or weed control at 140 g/ha in data set [5] worked out at 100%. Further, the pest or weed control at 140 g/ha in data set [6] is 100%.
`Nc1cc(-c2ccc3c(c2F)OCO3)nc(C(=O)O)c1Cl` [Compound 108, 4-Amino-3-chloro-6-(2-fluoro-3,4-methylenedioxyphenyl)pyridine-2-carboxylic acid]: the melting point was 202 to 203 °C (dec.). In addition, in data set [1], the pest or weed control at 140 g/ha was determined as 95%. In addition, in data set [2], the pest or weed control at 140 g/ha stood at 100%. Besides, the pest or weed control at 140 g/ha in data set [3] turned out to be 100%. Also, in data set [4], the pest or weed control at 140 g/ha came out at 90%. In data set [5], the pest or weed control at 140 g/ha was found to be 100%. In addition, the pest or weed control at 140 g/ha in data set [6] turned out to be 90%.
On to `COc1c(Cl)ccc(-c2cc(N)c(Cl)c(C(=O)O)n2)c1Cl` [Compound 110, 4-Amino-3-chloro-6-(2,4-dichloro-3-methoxyphenyl)pyridine-2-carboxylic acid], for which the melting point was 187 to 188 °C (dec.). Besides, in data set [1], the pest or weed control at 140 g/ha was 85%. The pest or weed control at 140 g/ha in data set [2] was 90%. For the same compound, the pest or weed control at 140 g/ha in data set [3] is 80%. For the same compound, the pest or weed control at 140 g/ha in data set [4] was 40%. Moreover, the pest or weed control at 140 g/ha in data set [5] came out at 40%. Moreover, the pest or weed control at 140 g/ha in data set [6] was 100%.
With `Nc1c(F)c(-c2ccc3c(c2F)OCO3)nc(C(=O)O)c1Cl` [Compound 115, 4-Amino-3-chloro-5-fluoro-6-(2-fluoro-3,4-methylenedioxyphenyl)pyridine-2-carboxylic acid], the melting point lay in the range of 179 to 180 °C. Further, the pest or weed control at 140 g/ha in data set [1] stood at 100%. Further, the pest or weed control at 140 g/ha in data set [2] was determined as 100%. Besides, the pest or weed control at 140 g/ha in data set [3] worked out at 100%. Besides, the pest or weed control at 140 g/ha in data set [4] is 100%. In addition, the pest or weed control at 140 g/ha in data set [5] was determined as 100%. Moreover, the pest or weed control at 140 g/ha in data set [6] stood at 100%.
As for `CCN(CC)c1c(Cl)ccc(-c2cc(N)c(Cl)c(C(=O)O)n2)c1F` [Compound 116, 4-Amino-3-chloro-6-[4-chloro-3-(diethylamino)-2-fluorophenyl]pyridine-2-carboxylic acid], the melting point fell in the range of 174 to 175 °C. The pest or weed control at 140 g/ha in data set [1] was 100%. Besides, in data set [2], the pest or weed control at 140 g/ha is 90%. Moreover, in data set [3], the pest or weed control at 140 g/ha was 80%. In data set [4], the pest or weed control at 140 g/ha turned out to be 75%. Moreover, the pest or weed control at 140 g/ha in data set [5] amounted to 100%. The pest or weed control at 140 g/ha in data set [6] came to 100%.
`COc1c(Br)ccc(-c2cc(N)c(Cl)c(C(=O)O)n2)c1Cl` [Compound 121, 4-Amino-6-(4-bromo-2-chloro-3-methoxyphenyl)-3-chloropyridine-2-carboxylic acid]: the melting point fell in the range of 192 to 193 °C. For the same compound, the pest or weed control at 140 g/ha in data set [1] is 90%. Also, in data set [2], the pest or weed control at 140 g/ha was found to be 95%. In data set [3], the pest or weed control at 140 g/ha stood at 100%. The pest or weed control at 140 g/ha in data set [4] amounted to 100%. The pest or weed control at 140 g/ha in data set [5] was 100%. For the same compound, the pest or weed control at 140 g/ha in data set [6] was determined as 100%.

The values above are taken from patent US20070179060A1, “6-(Poly-substituted aryl)-4-aminopicolinates and their use as herbicides” (priority 2006, published 2007).
